Where two headings read alike, the source gives them in different places.
Key:
Format in all cases: biochemical
CDK2/CycA = biological target: T1, CDK2/CycA (Homo sapiens, UniProt P24941); assay: CDK2 Enzymatic Activity Assay (Lance Kinase Activity Assay, FRET); conditions: for CDK2 IC50 range class: Table 5B, symbols per IC50 ranges of b615
T1 construct: purchased Proqinase
Method: (§1) This protocol describes how the Lance Kinase Activity Assay was performed to determine IC50 values of compounds of general formula (I) against CDK/Cyclin complexes. The principle behind this enzymatic assay is based upon the phosphorylation of the Ulight-Peptide Substrat. It is detected by using a specific EU-labeled anti-phospho peptide antibody.
(§2) Binding of an inhibitor to the kinase prevents phosphorylation of the ULlight-MBP Substrat, resulting in a loss of FRET.
CDK2 Enzymatic Activity Assay
(§3) The compounds of general formula (I) exemplary summarized in Table 1 were diluted from a 10 mM DMSO stock solution 1:10 in a total volume of 15 μl DMSO. This compound predilution was then serial diluted 1:3 over 8 steps in DMSO and briefly spun down. Each compound solution was now diluted 1:20 in Enzymatic Buffer (HEPES: 50 mM, pH: 7.5; MgCl2: 10 mM; EGTA: 1 mM; DTT: 2 mM; Tween-20: 0.01%), mixed thoroughly and spun down.
(§4) For positive controls, 2 μl of DMSO working solution were mixed with 6 μl CDK2/CycA/substrate working solution and 2 μl ATP working solution. Positive and negative controls were calculated from at least 8 different wells. The 384 well plates were mixed in a Teleshaker plate mixer (Beckman Coulter, Brea, Calif., USA) at 2000 rpm for 40 sec, and incubated for 1 h at room temperature before addition of 10 μl LANCE Detection Buffer (EDTA: 20 nM; Eu-Anti-P-MBP: 4 nM) per well. Plates were mixed in a Teleshaker plate mixer (Beckman Coulter, Brea, Calif., USA) at 2000 rpm for sec, followed by incubation with Detection Buffer for 1 h, and reading. […] IC50 values were determined from the sigmoidal dose response curves with the software Quattro Workflow (Quattro GmbH, Munich, Germany).

CDK7/CycH/Mat1 = biological target: T2, CDK7/CycH/Mat1 (Homo sapiens, UniProt P50613); assay: CDK7 Enzymatic Activity Assay (Lance Kinase Activity Assay, FRET)
T2 construct: purchased Carna
Method: as §1, §2
CDK7 Enzymatic Activity Assay
as §3
as §4, with “6 μl CDK7/CycH/Mat1/substrate working solution” for “6 μl CDK2/CycA/substrate working solution”, “Detection Buffer (1×; EDTA: […];” for “Detection Buffer (EDTA: 20 nM;”, “rpm for 40 sec, followed” for “rpm for sec, followed”

CDK9/Cyclin T1 = biological target: T3, CDK9/Cyclin T1 (Homo sapiens, UniProt P50750); assay: CDK9 Enzymatic Activity Assay (Lance Kinase Activity Assay, FRET); conditions: for CDK9: Selectivity of CDK7 inhibition over CDK9 inhibition [fold]: Table 5B, symbols per IC50 ranges of b615; for Selectivity CDK7 over CDK9 [fold]: Table 6, CDK9 activity as multiple of CDK7 activity
T3 construct: purchased Invitrogen
Method: as §1, §2
CDK9 Enzymatic Activity Assay
as §3
as §4, with “CDK9/cyclin T1/substrate” for “CDK2/CycA/substrate”, “(1×; EDTA:” for “(EDTA:”

[1] = Table 5A, 25 μM ATP final, read-out: CDK7: IC50 [mM] for CDK7 inhibition (the above defined ranges apply)
[2] = Table 6, read-out: IC50 [nM] CDK7

T2 sequence (P50613 whole entry): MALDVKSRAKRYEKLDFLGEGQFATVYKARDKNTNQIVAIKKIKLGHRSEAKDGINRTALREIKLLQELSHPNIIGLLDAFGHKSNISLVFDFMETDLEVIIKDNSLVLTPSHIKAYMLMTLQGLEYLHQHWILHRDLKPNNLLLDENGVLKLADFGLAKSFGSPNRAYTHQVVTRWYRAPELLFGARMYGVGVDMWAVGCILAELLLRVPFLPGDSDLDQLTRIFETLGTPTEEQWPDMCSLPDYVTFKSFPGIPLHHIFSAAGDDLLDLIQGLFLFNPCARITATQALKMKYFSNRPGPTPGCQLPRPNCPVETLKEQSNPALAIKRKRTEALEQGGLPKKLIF
T2 sequence (P51946 whole entry partner): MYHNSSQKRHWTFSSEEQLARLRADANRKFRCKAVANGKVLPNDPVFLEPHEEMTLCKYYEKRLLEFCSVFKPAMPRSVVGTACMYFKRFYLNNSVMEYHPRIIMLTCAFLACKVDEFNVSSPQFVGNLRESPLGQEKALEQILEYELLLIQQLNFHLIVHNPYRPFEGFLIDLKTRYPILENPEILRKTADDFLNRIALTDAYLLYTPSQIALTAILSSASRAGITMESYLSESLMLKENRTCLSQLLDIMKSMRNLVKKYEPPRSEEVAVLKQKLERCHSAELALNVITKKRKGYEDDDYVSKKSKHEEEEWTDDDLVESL
T2 sequence (P51948 whole entry partner): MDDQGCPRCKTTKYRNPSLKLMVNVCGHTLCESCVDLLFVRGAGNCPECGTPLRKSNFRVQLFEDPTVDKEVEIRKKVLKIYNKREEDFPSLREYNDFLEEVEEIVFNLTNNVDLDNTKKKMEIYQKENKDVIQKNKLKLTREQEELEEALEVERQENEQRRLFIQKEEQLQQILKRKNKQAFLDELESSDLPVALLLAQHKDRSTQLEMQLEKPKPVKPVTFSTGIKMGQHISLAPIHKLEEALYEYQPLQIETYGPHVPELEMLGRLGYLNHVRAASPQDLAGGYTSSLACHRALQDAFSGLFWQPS
T3 sequence (P50750 whole entry): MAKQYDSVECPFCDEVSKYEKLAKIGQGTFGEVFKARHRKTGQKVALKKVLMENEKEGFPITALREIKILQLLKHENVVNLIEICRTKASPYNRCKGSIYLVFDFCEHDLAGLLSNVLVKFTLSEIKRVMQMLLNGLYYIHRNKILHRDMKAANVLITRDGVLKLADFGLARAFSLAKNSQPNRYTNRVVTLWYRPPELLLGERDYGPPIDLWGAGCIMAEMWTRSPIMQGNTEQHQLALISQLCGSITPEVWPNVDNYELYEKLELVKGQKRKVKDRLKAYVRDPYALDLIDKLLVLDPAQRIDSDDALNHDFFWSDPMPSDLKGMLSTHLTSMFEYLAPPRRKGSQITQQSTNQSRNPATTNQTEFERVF
T3 sequence (O60563 whole entry partner): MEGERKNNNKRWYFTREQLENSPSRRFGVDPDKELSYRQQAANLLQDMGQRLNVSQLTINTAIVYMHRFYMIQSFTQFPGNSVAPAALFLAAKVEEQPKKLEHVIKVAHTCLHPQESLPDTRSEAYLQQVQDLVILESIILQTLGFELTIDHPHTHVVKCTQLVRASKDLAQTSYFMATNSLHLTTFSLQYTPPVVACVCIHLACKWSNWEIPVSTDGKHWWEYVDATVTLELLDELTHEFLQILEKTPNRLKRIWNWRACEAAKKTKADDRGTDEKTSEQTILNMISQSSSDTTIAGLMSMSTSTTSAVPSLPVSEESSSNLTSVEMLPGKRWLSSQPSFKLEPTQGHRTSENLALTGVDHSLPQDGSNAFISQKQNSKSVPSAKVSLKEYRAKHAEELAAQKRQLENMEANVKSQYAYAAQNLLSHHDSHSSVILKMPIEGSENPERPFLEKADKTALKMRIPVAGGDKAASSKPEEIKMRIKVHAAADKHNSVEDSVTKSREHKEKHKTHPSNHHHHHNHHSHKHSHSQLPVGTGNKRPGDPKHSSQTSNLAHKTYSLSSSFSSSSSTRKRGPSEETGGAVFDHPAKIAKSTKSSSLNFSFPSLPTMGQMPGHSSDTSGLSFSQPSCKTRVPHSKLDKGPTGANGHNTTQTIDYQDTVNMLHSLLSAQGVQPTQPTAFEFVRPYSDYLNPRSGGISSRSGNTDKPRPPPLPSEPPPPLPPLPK

| CDK2 IC50 range class (CDK2/CycA) | IC50 (CDK7/CycH/Mat1; [1]) [nM] | CDK9: Selectivity of CDK7 inhibition over CDK9 inhibition [fold] (CDK9/Cyclin T1) | Selectivity CDK7 over CDK2 [fold] (CDK2/CycA; Table 6, CDK2 activity as multiple of CDK7 activity) | multiplicity of the CDK2 and CDK9 activity in terms of the CDK7 activity (CDK7/CycH/Mat1; CDK2 and CDK9 IC50 relative to CDK7 IC50, highest of the two ('up to')) [fold] | IC50 (CDK7/CycH/Mat1; [2]) [nM] | selectivity for CDK7 against CDK2 and CDK9 (in words) (CDK7/CycH/Mat1; comparison of the enzymatic activity assays for CDK2, CDK7 and CDK9) | Selectivity CDK7 over CDK9 [fold] (CDK9/Cyclin T1) | SMILES |
| --- | --- | --- | --- | --- | --- | --- | --- | --- |
| +++ (IC50>2500 nM) | 10 to 30 | +++ (IC50>2500 nM) |  |  |  |  |  | COc1cccc([C@H](C)Nc2nc(S(=O)(=O)C3CCNCC3)nc3c(C(C)C)cnn23)c1 [(X-f), (S)-8-isopropyl-N-(1-(3-methoxyphenyl)ethyl)-2-(piperidin-4-ylsulfonyl)pyrazolo[1,5-a][1,3,5]triazin-4-amine] |
| +++ (IC50>2500 nM) | 10 to 30 | +++ (IC50>2500 nM) |  |  |  |  |  | CC(C)Oc1cccc([C@H](C)Nc2nc(O[C@@H]3CCCNC3)nc3c(C(C)C)cnn23)c1 [(VII-bc), N-((S)-1-(3-isopropoxy-phenyl)ethyl)-8-isopropyl-2-((R)-piperidin-3-yloxy)pyrazolo[1,5-a][1,3,5]triazin-4-amine] |
| +++ (IC50>2500 nM) | > 100 | +++ (IC50>2500 nM) |  |  |  |  |  | CCOc1cccc([C@H](C)Nc2nc(O[C@@H]3CCCNC3)nc3c(C(C)C)cnn23)c1 [(VII-aV), N-((S)-1-(3-ethoxyphenyl)ethyl)-8-isopropyl-2-((R)-piperidin-3-yloxy)pyrazolo[1.5-a][1,3,5]triazin-4-amine] |
| +++ (IC50>2500 nM) | > 100 | +++ (IC50>2500 nM) |  |  |  |  |  | COc1cccc([C@H](C)Nc2nc(CN(C)CC3CNC3)nc3c(C(C)C)cnn23)c1 [(XXIX-3), (S)-2-(((azetidin-3-ylmethyl)(methyl)amino)methyl)-8-isopropyl-N-(1-(3-methoxyphenyl)ethyl)pyrazolo[1,5-a][1,3,5]triazin-4-amine] |
| +++ (IC50>2500 nM) | > 100 | +++ (IC50>2500 nM) |  |  |  |  |  | COc1cccc([C@H](C)Nc2nc(N(C)CCCN3CCCCC3)nc3c(C(C)C)cnn23)c1 [(VIII-X), (S)-8-isopropyl-N4-(1-(3-methoxyphenyl)ethyl)-N2-methyl-N2-(3-(piperidin-1-yl)propyl)pyrazolo(1,5-a][1,3,5]triazine-2,4-diamine] |
| +++ (IC50>2500 nM) | < 10 | +++ (IC50>2500 nM) | 733 | > 733 | < 10 | selectively inhibits only CDK7 | 598 | CC(C)c1cnn2c(N[C@@H](C)c3ccccc3)nc(O[C@@H]3CCCNC3)nc12 [(VII-j), 8-isopropyl-N-((S)-1-phenylethyl)-2-((R)-piperidin-3-yloxy)pyrazolo[1,5-a][1,3,5]triazin-4-amine] |
| +++ (IC50>2500 nM) | > 100 | +++ (IC50>2500 nM) |  |  |  |  |  | COCCN1CCN(Cc2nc(N[C@@H](C)c3cccc(OC)c3)n3ncc(C(C)C)c3n2)CC1 [(XXIX-11), (S)-8-isopropyl-2-((4-(2-methoxyethyl)piperazin-1-yl)methyl)-N-(1-(3-methoxyphenyl)ethyl)pyrazolo[1,5-a][1,3,5]triazin-4-amine] |
|  | < 10 | +++ (IC50>2500 nM) |  |  |  |  |  | COc1cccc([C@H](C)Nc2nc(OC3CCNCC3)nc3c(C(C)C)cnn23)c1 [(VII-q), (S)-8-isopropyl-N-(1-(3-methoxyphenyl)ethyl)-2-(piperidin-4-yloxy)pyrazolo[1,5-a][1,3,5]triazin-4-amine] |
|  | < 10 | +++ (IC50>2500 nM) |  |  |  |  |  | COc1cccc([C@H](C)Nc2nc(O[C@@H]3CCNC3)nc3c(C(C)C)cnn23)c1 [(VII-p), 8-isopropyl-N-((S)-1-(3-methoxyphenyl)ethyl)-2-((R)-pyrrolidin-3-yloxy)pyrazolo[1,5-a][1,3,5]triazin-4-amine] |
| +++ (IC50>2500 nM) | 10 to 30 |  |  |  |  |  |  | CC(C)c1cnn2c(N[C@@H](C)c3ccccc3)nc(NC3CCNCC3)nc12 [(VIII-d), (S)-8-isopropyl-N4-(1-phenylethyl)-N2-(piperidin-4-yl)pyrazolo[1,5-a][1,3,5]triazine-2,4-diamine] |

The remaining lines, values behind:

| SMILES | CDK2 IC50 range class (CDK2/CycA) | IC50 (CDK7/CycH/Mat1; [1]) [nM] | CDK9: Selectivity of CDK7 inhibition over CDK9 inhibition [fold] (CDK9/Cyclin T1) | Selectivity CDK7 over CDK2 [fold] (CDK2/CycA; Table 6, CDK2 activity as multiple of CDK7 activity) | multiplicity of the CDK2 and CDK9 activity in terms of the CDK7 activity (CDK7/CycH/Mat1; CDK2 and CDK9 IC50 relative to CDK7 IC50, highest of the two ('up to')) [fold] | IC50 (CDK7/CycH/Mat1; [2]) [nM] | selectivity for CDK7 against CDK2 and CDK9 (in words) (CDK7/CycH/Mat1; comparison of the enzymatic activity assays for CDK2, CDK7 and CDK9) | Selectivity CDK7 over CDK9 [fold] (CDK9/Cyclin T1) |
| --- | --- | --- | --- | --- | --- | --- | --- | --- |
| CC(C)c1cnn2c(N[C@@H](C)c3ccc(Cl)cc3)nc(O[C@@H]3CCCNC3)nc12 [(VII-al), N-((S)-1-(4-chlorophenyl)ethyl)-8-isopropyl-2-((R)-piperidin-3-yloxy)pyrazolo[1,5-a][1,3,5]triazin-4-amine] | +++ (IC50>2500 nM) | > 100 | +++ (IC50>2500 nM) |  |  |  |  |  |
| CC(C)c1cnn2c(NC(C)c3ccccc3-c3ccccc3)nc(O[C@@H]3CCCNC3)nc12 (stereo partly drawn) [(VII-as), N-(1-([1,1′-biphenyl]-2-yl)ethyl)-8-isopropyl-2-((R)-piperidin-3-yloxy)pyrazolo[1,5-a][1,3,5]triazin-4-amine] | +++ (IC50>2500 nM) | > 100 | +++ (IC50>2500 nM) |  |  |  |  |  |
| CC(C)c1cnn2c(NC(C)c3ccccc3S(=O)(=O)N3CCCC3)nc(O[C@@H]3CCCNC3)nc12 (stereo partly drawn) [(VII-bz), 8-isopropyl-2-((R)-piperidin-3-yloxy)-N-(1-(2-(pyrrolidin-1-ylsulfonyl)phenyl)ethyl)pyrazolo[1,5-a][1,3,5]triazin-4-amine] | +++ (IC50>2500 nM) | < 10 | +++ (IC50>2500 nM) |  |  |  |  |  |
| COc1cccc([C@H](C)Nc2nc(O[C@@H]3CCCNC3)nc3c(C(C)C)cnn23)c1OC [(VII-aX), N-((S)-1-(2,3-dimethoxy-phenyl)ethyl)-8-isopropyl-2-((R)-piperidin-3-yloxy)pyrazolo[1,5-a][1,3,5]triazin-4-amine] | +++ (IC50>2500 nM) | < 10 | +++ (IC50>2500 nM) |  |  |  |  |  |
| CC(C)c1cnn2c(N[C@H](c3ccccc3)C3CC3)nc(O[C@@H]3CCCNC3)nc12 [(VII-s), N-((S)-cyclopropyl(phenyl)methyl)-8-isopropyl-2-((R)-piperidin-3-yloxy)pyrazolo[1,5-a][1,3,5]triazin-4-amine] | +++ (IC50>2500 nM) | 10 to 30 |  |  |  |  |  |  |
| COc1ccccc1[C@H](C)Nc1nc(N[C@@H]2CCCNC2)nc2c(C(C)C)cnn12 [(VIII-g), 8-isopropyl-N4-((S)-1-(2-methoxyphenyl)ethyl)-N2-((R)-piperidin-3-yl)pyrazolo[1,5-a][1,3,5]triazine-2,4-diamine] |  | < 10 | +++ (IC50>2500 nM) |  |  |  |  |  |
| COc1cccc(CNc2nc(OC3CCN(C)CC3)nc3c(C(C)C)cnn23)c1 [C-II, reference compound] |  |  |  |  |  | < 10 |  | 9 |
| CC(C)c1cnn2c(NC(C)c3ccccc3-n3cccn3)nc(O[C@@H]3CCCNC3)nc12 (stereo partly drawn) [(VII-V), N-(1-(2-(1H-pyrazol-1-yl)phenyl)ethyl)-8-isopropyl-2-((R)-piperidin-3-yloxy)pyrazolo[1,5-a][1,3,5]triazin-4-amine] |  | < 10 | +++ (IC50>2500 nM) |  |  |  |  |  |
